Results taken from patent US20020165127A1, “Methods for treating insulin resistance and identifying patients at risk for the disease” (SuperGen, Inc., priority 1996, published 2002).

Columns and labels:
bp3 = bp3 (Homo sapiens, UniProt P17936); details: cited from earlier work
[1] = tested on: patient suffering from reactive hypoglycemia; assay: Treatment of reactive hypoglycemia; format: in vivo, human; details: long-acting controlled release formulation; for IGF-2 levels: serum
Procedure: A patient suffering from reactive hypoglycemia has a serum sample evaluated for IGF-1 and IGF-2 levels. IGF-1 levels are normal but IGF-2 levels are more than two standard deviations below the expected levels for a person of the same age, sex and body weight. The patient is treated by administering IGF-2 or 22K-GH in a long-acting controlled release formulation.

IGF-1 and IGF-2 = details: cited from earlier work

bp3, sequence (P17936 28-291): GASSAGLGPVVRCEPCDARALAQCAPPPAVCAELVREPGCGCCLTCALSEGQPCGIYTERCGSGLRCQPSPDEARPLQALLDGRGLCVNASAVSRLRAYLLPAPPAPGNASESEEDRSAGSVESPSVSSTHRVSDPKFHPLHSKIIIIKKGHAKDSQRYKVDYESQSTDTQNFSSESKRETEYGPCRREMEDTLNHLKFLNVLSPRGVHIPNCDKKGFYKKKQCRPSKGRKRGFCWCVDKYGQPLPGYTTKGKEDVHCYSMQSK

| Substance | affinity to bp3 (bp3) | hypoglycemic episodes [1] | IGF-2 levels [1] | effects on the synthesis and secretion of IGFs (IGF-1 and IGF-2) |
| --- | --- | --- | --- | --- |
| IGF-1: IGF polypeptide in serum that binds bp3 | equal affinity | – | – | – |
| 22K-GH: the larger human growth hormone isoform | – | less frequent | increased | stimulate both IGF-1 and IGF-2 |
| IGF-2: IGF polypeptide; competes with insulin for binding to the insulin receptor | equal affinity | less frequent | increased | – |
